For data set [1], the system named is PC-12. The data set can be described thus: Neurotrophic activity in rat PC-12 cells assessed as neurite outgrowth promoting activity in NGF-induced cells by measuring differentiation rate at 10 […] (reference value: 4.24 +/- 0.03 %). The class given is functional. Set-up: concentration or dose not given beside the values.
Data set [2] concerns PC-12. The data set is described as follows: Induction of neurite outgrowth in NGF-induced rat PC-12 cells assessed as increase in average neurite length at 10 uM in presence of by methylene blue staining based light microscopy. The class given is functional, cell-based.
In data set [3] the test system is PC-12. The data set can be described thus: Neurotrophic activity in rat PC-12 cells assessed as neurite outgrowth promoting activity in NGF-induced cells by measuring differentiation rate at 10 […] relative to merrillianone. The class given is functional.
For data set [4], the system named is PC-12. The data set is described as follows: Neurotrophic activity in rat PC-12 cells assessed as neurite outgrowth promoting activity in NGF-induced cells by measuring differentiation rate at 10 […] relative to cycloparviforalone. The class given is functional.
The nature of data set [5]: Hydrolytic stability in phosphate buffer with pH 3.5 assessed as retention time measured after 2 hrs by HPLC analysis. Particulars: pH 3.5, 2 h. The class given is physicochemical.
A short description of data set [6]: Hydrolytic stability in phosphate buffer with pH 3.5 assessed as retention time measured after 4 hrs by HPLC analysis. The settings on record: pH 3.5, 4 h. The class given is physicochemical.
The nature of data set [7]: Hydrolytic stability in phosphate buffer with pH 3.5 assessed as retention time measured after 6 hrs by HPLC analysis. The settings on record: pH 3.5, 6 h. The class given is physicochemical.

The structures appear in SMILES notation. Activity calls are given as the source filed them. The calls are words filed in the database; no cut-off is given here.

Regarding `C[C@@H]1CC[C@@]2(O)[C@]13C[C@@]1(OC(=O)CCC(=O)c4ccccc4)OC(OC[C@@]2(C)[C@@]1(C)O)[C@@H]3O`, the Activity with PC-12 [1] amounted to 5.69%.

`C/C=C/C=C/C(=O)O[C@]12C[C@]34[C@H](C)CC[C@]3(O)[C@@](C)(COC(O1)[C@@H]4O)[C@@]2(C)O`: in the data set with PC-12 [1], the Activity is 11.74%. In the data set with PC-12 [2], the result was Active. In addition, the “fold change (FC)” value with PC-12 [3] and in the data set on PC-12 [4] was 2 in each case.

With `C[C@@H]1CC[C@@]2(O)[C@]13C[C@@]1(OC(=O)Cc4cccc(Cl)c4)OC(OC[C@@]2(C)[C@@]1(C)O)[C@@H]3O`, the Activity in the data set with PC-12 [1] is 7.13%.

For the compound `C[C@@H]1CC[C@@]2(O)[C@]13C[C@@]1(OC(=O)Cc4cccc(F)c4)OC(OC[C@@]2(C)[C@@]1(C)O)[C@@H]3O`, the Activity in the data set on PC-12 [1] was 6.52%.

Turning to `C[C@@H]1CC=C2[C@]13C[C@@]1(O)OC(OC[C@@]2(C)[C@@]1(C)O)[C@@H]3OC(=O)CCc1ccc(F)cc1`, in the data set with PC-12 [1], the Activity is 5.43%.

Regarding `C[C@@H]1CC=C2[C@]13C[C@@]1(O)OC(OC[C@@]2(C)[C@@]1(C)O)[C@@H]3OC(=O)CCC(=O)c1ccccc1`, the Activity with PC-12 [1] was 7.21%.

As for `C[C@@H]1CC[C@@]2(O)[C@]13C[C@@]1(OC(=O)CCc4ccc(Cl)cc4)OC(OC[C@@]2(C)[C@@]1(C)O)[C@@H]3O`, the Activity in the data set on PC-12 [1] amounted to 5.87%.

In the case of `C[C@@H]1CC[C@@]2(O)[C@]13C[C@@]1(OC(=O)Cc4ccc5ccccc5c4)OC(OC[C@@]2(C)[C@@]1(C)O)[C@@H]3O`, the Activity with PC-12 [1] came to 4.76%. In addition, the values for the Retention_time in data set [5], in data set [6] and in data set [7] were 15.77 min, 15.97 min and 16.154 min, respectively.

As for `C[C@@H]1CC[C@@]2(O)[C@]13C[C@@]1(OC(=O)CCc4ccc(Br)cc4)OC(OC[C@@]2(C)[C@@]1(C)O)[C@@H]3O`, in the data set on PC-12 [1], the Activity came to 6.15%.

For `C[C@@H]1CC[C@@]2(O)[C@]13C[C@@]1(OC(=O)CCc4ccc(F)cc4)OC(OC[C@@]2(C)[C@@]1(C)O)[C@@H]3O`, the Activity in the data set on PC-12 [1] was found to be 10.41%. The result in the data set with PC-12 [2] was Active. Moreover, the “fold change (FC)” value in the data set with PC-12 [3] and with PC-12 [4] was 2 in each case.

With `C[C@@H]1CC=C2[C@]13C[C@@]1(O)OC(OC[C@@]2(C)[C@@]1(C)O)[C@@H]3OC(=O)CCc1cccc(Br)c1`, the Activity in the data set on PC-12 [1] was determined as 5.26%.

Regarding `C[C@@H]1CC[C@@]2(O)[C@]13C[C@@]1(OC(=O)CCc4cccc(Br)c4)OC(OC[C@@]2(C)[C@@]1(C)O)[C@@H]3O`, the Activity in the data set with PC-12 [1] is recorded as 5.26%.

`C[C@@H]1CC[C@@]2(O)[C@]13C[C@@]1(OC(=O)CCc4cccc(F)c4)OC(OC[C@@]2(C)[C@@]1(C)O)[C@@H]3O`: the Activity with PC-12 [1] worked out at 6.35%.

On to `C[C@@H]1CC=C2[C@]13C[C@@]1(O)OC(OC[C@@]2(C)[C@@]1(C)O)[C@@H]3OC(=O)CCc1ccc(Br)cc1`, for which the Activity in the data set with PC-12 [1] is listed as 6.03%.

On to `C[C@@H]1CC[C@@]2(O)[C@]13C[C@@]1(OC(=O)Cc4cccc(Br)c4)OC(OC[C@@]2(C)[C@@]1(C)O)[C@@H]3O`, for which the Activity in the data set on PC-12 [1] is on record as 7.35%.

Take `C[C@@H]1CC=C2[C@]13C[C@@]1(O)OC(OC[C@@]2(C)[C@@]1(C)O)[C@@H]3OC(=O)CCc1ccc(Cl)cc1`: in the data set with PC-12 [1], the Activity was 6.05%.

With `C[C@@H]1CC[C@@]2(O)[C@]13C[C@@]1(OC(=O)Cc4ccc(Br)cc4)OC(OC[C@@]2(C)[C@@]1(C)O)[C@@H]3O`, the Activity in the data set on PC-12 [1] amounted to 6.12%.

`C[C@@H]1CC=C2[C@]13C[C@@]1(O)OC(OC[C@@]2(C)[C@@]1(C)O)[C@@H]3OC(=O)CCc1cccc(Cl)c1`: in the data set with PC-12 [1], the Activity is listed as 5.6%.

`C[C@@H]1CC[C@@]2(O)[C@]13C[C@@]1(OC(=O)Cc4ccc(F)cc4)OC(OC[C@@]2(C)[C@@]1(C)O)[C@@H]3O`: in the data set on PC-12 [1], the Activity is recorded as 5.74%.

Turning to `C[C@@H]1CC=C2[C@]13C[C@@]1(O)OC(OC[C@@]2(C)[C@@]1(C)O)[C@@H]3O`, the Activity in the data set on PC-12 [1] is 5.31%.

As to `C[C@@H]1CC=C2[C@]13C[C@@]1(O)OC(OC[C@@]2(C)[C@@]1(C)O)[C@@H]3OC(=O)CCc1ccccc1`, in the data set on PC-12 [1], the Activity stood at 5.81%.

Regarding `C/C=C/C=C/C(=O)O[C@H]1C2OC[C@]3(C)C4=CC[C@@H](C)[C@@]41C[C@@](O)(O2)[C@]3(C)O`, the Activity in the data set with PC-12 [1] is 11.11%. Also, the outcome in the data set on PC-12 [2] was Active. The “fold change (FC)” value in the data set with PC-12 [3] and in the data set on PC-12 [4] was 2 each time.

For the compound `C[C@@H]1CC=C2[C@]13C[C@@]1(O)OC(OC[C@@]2(C)[C@@]1(C)O)[C@@H]3OC(=O)CCc1cccc(F)c1`, the Activity with PC-12 [1] was found to be 4.97%.

On to `C[C@@H]1CC[C@@]2(O)[C@]13C[C@@]1(O)OC(OC[C@@]2(C)[C@@]1(C)O)[C@@H]3O`, for which the Activity in the data set with PC-12 [1] was 5.75%.

In the case of `C[C@@H]1CC[C@@]2(O)[C@]13C[C@@]1(OC(=O)CCc4cccc(Cl)c4)OC(OC[C@@]2(C)[C@@]1(C)O)[C@@H]3O`, in the data set on PC-12 [1], the Activity turned out to be 4.57%.

Consider `C[C@@H]1CC[C@@]2(O)[C@]13C[C@@]1(OC(=O)/C=C/c4ccccc4)OC(OC[C@@]2(C)[C@@]1(C)O)[C@@H]3O`, for which, in the data set with PC-12 [1], the Activity was determined as 5.03%.

As to `C[C@@H]1CC[C@@]2(O)[C@]13C[C@@]1(OC(=O)Cc4ccc(Cl)cc4)OC(OC[C@@]2(C)[C@@]1(C)O)[C@@H]3O`, the Activity with PC-12 [1] is recorded as 4.9%.
